Some test systems named below: 786-0; A549; CAKI-1; HL-60; HOP-62; LOX IMVI; M14; NCI-H226; OVCAR-3; OVCAR-4; SF-268; SK-MEL-2; SNB-19; SNB-75; TK-10; UACC-257; DU-145; NCI/ADR-RES; PC-3.
Holding throughout (assay): NCI-60 cell line screen, 48 h

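Five compound concentrations were applied to cells in 96-well plates for 48 hours; endpoints were derived by simple linear interpolation of the resulting dose-response curve. GI50 marks 50% less growth.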 Activity calls are given as the source filed them. No stated cut-off is given here; in the data, active = GI50 up to about 1.1 µM and inactive = higher.

With `C[C@]12CCC3[C@@H](CC[C@@H]4c5nonc5CC[C@]34C)C1C/C(=N/O)C2=O` (stereo partly drawn), the GI50 with 786-0 is > 100 µM (inactive); with A549 it was > 100 µM (inactive); with CAKI-1, 4.34 µM (inactive); in the assay on HL-60, 2.12 µM (inactive); in the assay on HOP-62, > 100 µM (inactive); in the assay on LOX IMVI it was 11.2 µM (inactive). Further, the GI50 was 63.5 µM (inactive) with M14; > 100 µM (inactive) in the assay with NCI-H226; 39.7 µM (inactive) with OVCAR-3; 76 µM (inactive) in the assay on OVCAR-4; 11.2 µM (inactive) with SF-268; 1.53 µM (inactive) in the assay with SK-MEL-2. In addition, the GI50 in the assay on SNB-19 was > 100 µM (inactive); in the assay on SNB-75, 0.0885 µM (active); in the assay with TK-10, 51.1 µM (inactive); in the assay on UACC-257, > 100 µM (inactive).
`CCN(CC)c1c(C(=O)/C=C/c2ccc(F)cc2)c(-c2ccccc2)nn(C)c1=O`: the GI50 was 10.3 µM (inactive) in the assay with 786-0; 8.69 µM (inactive) in the assay on A549; 11.6 µM (inactive) in the assay on CAKI-1; 2.9 µM (inactive) in the assay on HL-60; 11.6 µM (inactive) in the assay on HOP-62; 7.35 µM (inactive) in the assay on LOX IMVI. Moreover, the GI50 in the assay on M14 was 12.1 µM (inactive); in the assay on NCI-H226 it was 14.7 µM (inactive); with OVCAR-3, 3.82 µM (inactive); in the assay with OVCAR-4 it was 4.24 µM (inactive); in the assay on SF-268, 8.79 µM (inactive); in the assay with SK-MEL-2, 4.66 µM (inactive). The GI50 with SNB-19 is 17 µM (inactive); with SNB-75 it was 4.51 µM (inactive); in the assay with TK-10, 17.7 µM (inactive); in the assay on UACC-257, 6.89 µM (inactive).
In the case of `Cc1c2ccccc2c(=O)n2c(-c3ccccn3)cccc12`, the GI50 in the assay with 786-0, in the assay on A549, in the assay on CAKI-1, in the assay with HL-60, with HOP-62 and with LOX IMVI was > 100 µM (inactive) each time. The GI50 was 78.7 µM (inactive) in the assay on M14; > 100 µM (inactive) with NCI-H226; 97.1 µM (inactive) in the assay on OVCAR-3; > 100 µM (inactive) in the assay on OVCAR-4; > 100 µM (inactive) with SF-268; > 100 µM (inactive) in the assay with SK-MEL-2. Besides, the GI50 was > 100 µM (inactive) in the assay with SNB-19, > 100 µM (inactive) in the assay with SNB-75, > 100 µM (inactive) in the assay on TK-10 and 94.8 µM (inactive) in the assay on UACC-257.
For the molecule `C=CCC1C(=O)CC2(C)C(CC=C)C(=O)CC12C` (stereo not drawn), the GI50 in the assay on 786-0, with A549, in the assay with CAKI-1, in the assay with HL-60, with HOP-62 and in the assay with LOX IMVI was > 100 µM (inactive) in each case. For the same molecule, the GI50 with M14, with NCI-H226, with OVCAR-3, in the assay with OVCAR-4, in the assay on SK-MEL-2 and in the assay on SNB-19 was > 100 µM (inactive) each time. In addition, the GI50 in the assay with SNB-75, in the assay with TK-10 and with UACC-257 was > 100 µM (inactive) in each case.
Take `CSC1=N/C(=C\c2ccc(C)cc2)C(=O)N1CN1CCOCC1`: the GI50 is 44.7 µM (inactive) in the assay on 786-0; 92.3 µM (inactive) in the assay on A549; 76 µM (inactive) in the assay on DU-145; > 100 µM (inactive) with HL-60; 89.1 µM (inactive) with HOP-62; 39.9 µM (inactive) in the assay on LOX IMVI. Besides, the GI50 is 95.1 µM (inactive) in the assay with M14; 31.3 µM (inactive) in the assay on NCI-H226; 19.5 µM (inactive) in the assay with NCI/ADR-RES; > 100 µM (inactive) with OVCAR-3; 0.622 µM (active) in the assay on OVCAR-4; 58.9 µM (inactive) in the assay on PC-3. In addition, the GI50 was 47.6 µM (inactive) in the assay with SF-268; > 100 µM (inactive) in the assay with SK-MEL-2; 37.5 µM (inactive) in the assay on SNB-19; 46.3 µM (inactive) in the assay with SNB-75; > 100 µM (inactive) in the assay with TK-10.
`COC(=O)/C(=N\O)C(C(=O)C=C(C)C)C(=O)C(=O)Nc1ccccc1C` (stereo not drawn): the GI50 in the assay on 786-0, in the assay with A549, in the assay with CAKI-1, with HL-60, with HOP-62 and with LOX IMVI was > 100 µM (inactive) each time. Besides, the GI50 with M14, in the assay with NCI-H226, in the assay with OVCAR-3, in the assay with OVCAR-4, in the assay with SF-268 and in the assay on SK-MEL-2 was > 100 µM (inactive) throughout. In addition, the GI50 with SNB-19, with SNB-75, in the assay on TK-10 and in the assay on UACC-257 was > 100 µM (inactive) throughout.
For the molecule `CCN(CC)Cc1cc(Nc2ccnc3ccc4nn(C)nc4c23)ccc1O`, the GI50 was 11.8 µM (inactive) in the assay with 786-0; 21.1 µM (inactive) in the assay on A549; 28.8 µM (inactive) in the assay with CAKI-1; 84.9 µM (inactive) with HL-60; 16.9 µM (inactive) in the assay with HOP-62; 7.73 µM (inactive) in the assay with LOX IMVI. For the same molecule, the GI50 was 14.3 µM (inactive) with M14; 22.5 µM (inactive) in the assay with NCI-H226; 12.3 µM (inactive) with OVCAR-3; 10.4 µM (inactive) in the assay on OVCAR-4; 13.6 µM (inactive) in the assay on SF-268; 28 µM (inactive) in the assay on SNB-19. Besides, the GI50 was 12.3 µM (inactive) with SNB-75, 22.4 µM (inactive) in the assay with TK-10 and 13.9 µM (inactive) in the assay with UACC-257.
As for `Cc1nc2c(O)cc3c4c(=O)n(C)c(=O)n(C)c4n(Cc4ccccc4)c3c2nc1C`, the GI50 with 786-0 is 17 µM (inactive); in the assay with A549, 19.2 µM (inactive); in the assay on DU-145, 18.3 µM (inactive); in the assay on HL-60, 24.2 µM (inactive); with HOP-62 it was 17.6 µM (inactive); with LOX IMVI, 18.9 µM (inactive). In addition, the GI50 was 17.6 µM (inactive) in the assay on M14; 21.6 µM (inactive) in the assay on NCI-H226; 25.8 µM (inactive) in the assay with NCI/ADR-RES; 11.1 µM (inactive) with OVCAR-4; 16.7 µM (inactive) with PC-3; 17.6 µM (inactive) with SF-268. In addition, the GI50 is 18 µM (inactive) with SK-MEL-2, 18.6 µM (inactive) in the assay on SNB-19, 17.6 µM (inactive) with TK-10 and 18.4 µM (inactive) with UACC-257.
In the case of `Cc1c(O)c(=O)ccn1C1OC(CO)C(O)C1O` (stereo not drawn), the GI50 is 85.9 µM (inactive) in the assay on 786-0; > 100 µM (inactive) in the assay with A549; > 100 µM (inactive) in the assay on CAKI-1; 17.4 µM (inactive) in the assay with HL-60; > 100 µM (inactive) in the assay with HOP-62; 56.2 µM (inactive) in the assay with LOX IMVI. Also, the GI50 in the assay on M14, in the assay on NCI-H226, in the assay on OVCAR-3, in the assay with OVCAR-4, in the assay on SF-268 and in the assay on SK-MEL-2 was > 100 µM (inactive) each time. For the same molecule, the GI50 is > 100 µM (inactive) with SNB-19, > 100 µM (inactive) with SNB-75, 68.9 µM (inactive) in the assay on TK-10 and > 100 µM (inactive) in the assay on UACC-257.

For the origin of these results see ChEMBL document CHEMBL1201862, “PubChem BioAssay data set” (2004).
